Assay results published in ChEMBL document CHEMBL4130430, “Efficacy of a series of alpha-pyrone derivatives against Leishmania (L.) infantum and Trypanosoma cruzi” (Eur J Med Chem, 2017).
Calls of active or inactive are those of the source. The rule behind the calls is not given here.

system: Leishmania infantum; assay: Antileishmanial activity against Leishmania infantum MHOM/BR/1972/LD promastigotes assessed as parasite viability up to 200 uM after 48 hrs by MTT assay; format: functional, organism-based; conditions: not given

SMILES	Activity
CCCCCCCCc1c(O)cc(C)oc1=O	inactive
Cc1cc(O)c(C(=O)CCC2CCCCC2)c(=O)o1	inactive
CCCCCCCCCCCCCCCC(=O)c1c(O)cc(C)oc1=O	inactive
CCCCCCCCCCCC(=O)c1c(O)cc(C)oc1=O	inactive
Cc1cc(O)c(C(=O)NCCCc2ccccc2)c(=O)o1	inactive
CCCCCCNC(=O)c1c(O)cc(C)oc1=O	inactive
CCCCCCCC(=O)c1c(O)cc(C)oc1=O	inactive
Cc1cc(O)c(CCC2CCCCC2)c(=O)o1	inactive
Cc1cc(O)c(C(=S)NC2CCCCC2)c(=O)o1	inactive
CCCCCCCNC(=O)c1c(O)cc(C)oc1=O	inactive
CCCCCCCCCCCCCCCCc1c(O)cc(C)oc1=O	inactive
CCCCCCCCCC(=O)c1c(O)cc(C)oc1=O	inactive
CCCCCCCCCCCCCCc1c(O)cc(C)oc1=O	inactive

system: Trypanosoma cruzi; assay: Antitrypanosomal activity against Trypanosoma cruzi Y trypomastigotes assessed as parasite viability after 24 hrs by resazurin staining-based hemocytometric analysis; format: functional, organism-based; conditions: not given

SMILES	IC50 [µM]
CCCCCCCCc1c(O)cc(C)oc1=O	40
Cc1cc(O)c(C(=O)CCC2CCCCC2)c(=O)o1	4.4
CCCCCCCCCCCCCCCC(=O)c1c(O)cc(C)oc1=O	66.3
CCCCCCCCCCCC(=O)c1c(O)cc(C)oc1=O	1.3
Cc1cc(O)c(C(=O)NCCCc2ccccc2)c(=O)o1	81.4
CCCCCCNC(=O)c1c(O)cc(C)oc1=O	72.6
CCCCCCCC(=O)c1c(O)cc(C)oc1=O	25.7
Cc1cc(O)c(CCC2CCCCC2)c(=O)o1	32.2
Cc1cc(O)c(C(=S)NC2CCCCC2)c(=O)o1	90.5
CCCCCCCCCCCCc1c(O)cc(C)oc1=O	16.1
CCCCCCCNC(=O)c1c(O)cc(C)oc1=O	78.1
CCCCCCCCCCCCCCCCc1c(O)cc(C)oc1=O	26.6
CCCCCCCCCC(=O)c1c(O)cc(C)oc1=O	17.5
CCCCCCCCCCCCCCc1c(O)cc(C)oc1=O	4.9

system: L929; assay: Cytotoxicity against mouse NCTC-929 cells after 72 hrs by MTT assay; format: cell-based; conditions: L929, 72 h

SMILES	IC50 [µM]
CCCCCCCCc1c(O)cc(C)oc1=O	145
Cc1cc(O)c(C(=O)CCC2CCCCC2)c(=O)o1	117
CCCCCCCCCCCCCCCC(=O)c1c(O)cc(C)oc1=O	164
CCCCCCCCCCCC(=O)c1c(O)cc(C)oc1=O	90.3
Cc1cc(O)c(C(=O)NCCCc2ccccc2)c(=O)o1	143
CCCCCCNC(=O)c1c(O)cc(C)oc1=O	196
CCCCCCCC(=O)c1c(O)cc(C)oc1=O	140
Cc1cc(O)c(CCC2CCCCC2)c(=O)o1	109
Cc1cc(O)c(C(=S)NC2CCCCC2)c(=O)o1	177
CCCCCCCCCCCCc1c(O)cc(C)oc1=O	57.2
CCCCCCCNC(=O)c1c(O)cc(C)oc1=O	187
CCCCCCCCCCCCCCCCc1c(O)cc(C)oc1=O	38.2
CCCCCCCCCC(=O)c1c(O)cc(C)oc1=O	134
CCCCCCCCCCCCCCc1c(O)cc(C)oc1=O	24.1
CCCCCCCCCCCCCCCCOP(=O)([O-])OCC[N+](C)(C)C [MILTEFOSINE]	241

system: Leishmania infantum; assay: Antileishmanial activity against Leishmania infantum MHOM/BR/1972/LD amastigotes infected in BALB/c mouse peritoneal macrophages assessed as parasite viability after 72 hrs by Giemsa staining-based light microscopic analysis; format: functional, organism-based; conditions: not given

SMILES	IC50 [µM]
Cc1cc(O)c(C(=O)CCC2CCCCC2)c(=O)o1	39.2
CCCCCCNC(=O)c1c(O)cc(C)oc1=O	54
CCCCCCCCCCCCCCCCOP(=O)([O-])OCC[N+](C)(C)C [MILTEFOSINE]	7.4

system: Leishmania infantum; assay: Antileishmanial activity against Leishmania infantum MHOM/BR/1972/LD promastigotes assessed as parasite viability after 48 hrs by MTT assay; format: functional, organism-based; conditions: not given

SMILES	IC50 [µM]
CCCCCCCCCCCCc1c(O)cc(C)oc1=O	138
CCCCCCCCCCCCCCCCOP(=O)([O-])OCC[N+](C)(C)C [MILTEFOSINE]	16.2

system: Leishmania infantum; assay: Antileishmanial activity against Leishmania infantum MHOM/BR/1972/LD amastigotes infected in BALB/c mouse peritoneal macrophages assessed as parasite viability up to 200 uM after 72 hrs by Giemsa staining-based light microscopic analysis; format: functional, organism-based; conditions: not given

SMILES	Activity
CCCCCCCCc1c(O)cc(C)oc1=O	inactive
CCCCCCCCCCCCCCCC(=O)c1c(O)cc(C)oc1=O	inactive
CCCCCCCCCCCC(=O)c1c(O)cc(C)oc1=O	inactive
Cc1cc(O)c(C(=O)NCCCc2ccccc2)c(=O)o1	inactive
CCCCCCCC(=O)c1c(O)cc(C)oc1=O	inactive
Cc1cc(O)c(CCC2CCCCC2)c(=O)o1	inactive
Cc1cc(O)c(C(=S)NC2CCCCC2)c(=O)o1	inactive
CCCCCCCCCCCCc1c(O)cc(C)oc1=O	inactive
CCCCCCCNC(=O)c1c(O)cc(C)oc1=O	inactive
CCCCCCCCCCCCCCCCc1c(O)cc(C)oc1=O	inactive
CCCCCCCCCC(=O)c1c(O)cc(C)oc1=O	inactive
CCCCCCCCCCCCCCc1c(O)cc(C)oc1=O	inactive

system: not listed separately; assay: Selectivity index, ratio of IC50 for mouse NCTC-929 cells to IC50 for Trypanosoma cruzi Y trypomastigotes; format: toxicity; conditions: NCTC-929 cells versus Trypanosoma cruzi Y trypomastigotes, read-out: Ratio IC50

SMILES	selectivity ratio
CCCCCCCCc1c(O)cc(C)oc1=O	3.6
Cc1cc(O)c(C(=O)CCC2CCCCC2)c(=O)o1	26.8
CCCCCCCCCCCCCCCC(=O)c1c(O)cc(C)oc1=O	2.5
CCCCCCCCCCCC(=O)c1c(O)cc(C)oc1=O	71.1
Cc1cc(O)c(C(=O)NCCCc2ccccc2)c(=O)o1	1.7
CCCCCCNC(=O)c1c(O)cc(C)oc1=O	2.7
CCCCCCCC(=O)c1c(O)cc(C)oc1=O	5.4
Cc1cc(O)c(CCC2CCCCC2)c(=O)o1	3.4
Cc1cc(O)c(C(=S)NC2CCCCC2)c(=O)o1	1.9
CCCCCCCCCCCCc1c(O)cc(C)oc1=O	3.5
CCCCCCCNC(=O)c1c(O)cc(C)oc1=O	2.4
CCCCCCCCCCCCCCCCc1c(O)cc(C)oc1=O	1.4
CCCCCCCCCC(=O)c1c(O)cc(C)oc1=O	7.6
CCCCCCCCCCCCCCc1c(O)cc(C)oc1=O	4.9
CCCCCCCCCCCCCCCCOP(=O)([O-])OCC[N+](C)(C)C [MILTEFOSINE]	32.6

system: not listed separately; assay: Selectivity index, ratio of IC50 for mouse NCTC-929 cells to IC50 for Leishmania infantum MHOM/BR/1972/LD amastigotes infected in BALB/C mouse peritoneal macrophages; format: toxicity; conditions: read-out: Ratio IC50

SMILES	selectivity ratio
Cc1cc(O)c(C(=O)CCC2CCCCC2)c(=O)o1	2.9
CCCCCCNC(=O)c1c(O)cc(C)oc1=O	3.6
